Assay results: patent publication US12576052B2, “Metformin inhalation powder aerosol for treating idiopathic pulmonary fibrosis and preparation method thereof” (Wenzhou Medical University, priority 2022, dated 2026)

Legend:
[1] = system: mice with pulmonary fibrosis; experiment: Bleomycin-induced pulmonary fibrosis mouse model: body weight, macroscopic lung damage, HE and Masson staining; format: in vivo, C57BL6 mice; conditions: inhalation powder aerosol of Embodiment 2, 5 mg per mouse every day for 3 weeks
Protocol: Establishment of pulmonary fibrosis model: C57BL6 mice aged 6-8 weeks are selected and adapted for one week. Bleomycin (3 mg/kg/50 μl) is given orally to mice in BLM group and BLM+Met group on the first day, and the dry powder of bleomycin is prepared to the required concentration with sterile phosphate buffer saline non-surgical method of bleomycin orally injected into mice's lungs: mice are anesthetized with isoflurane and hung on the operating board at 70°. Bleomycin is dripped orally using a 200 μl pipette).
Dosage of inhaled metformin: the reference value of local administration concentration of metformin in upper respiratory tract is 200 mg/kg. According to the weight of 25 g per mouse, each mouse inhales 5 mg of metformin inhalation powder aerosol in Embodiment 2 every day for 3 weeks.
Weighing: weights of the mice are weighed at a fixed time every morning and recorded, and the changes of mice's weight are observed at different times in each group.
Hematoxylin Eosin (HE) staining and Masson staining: the lung tissue of mice is fixed in 4% paraformaldehyde for 24 hours, washed overnight with running water, dehydrated by conventional alcohol, embedded in paraffin, cut into 5-micron slides, stained with HE and Masson, and sealed with neutral gum after applying xylene for transparency. The pathological changes of lung are observed under optical microscope and photos are taken.
Statistical analysis: the experimental data of each group are statistically analyzed by GraphpadPrism9.0 software. All the experimental data are tested for normality, and the measurement data are expressed as mean±standard deviation. The mean of multiple groups of samples is compared by One-way Analysis of Variance (one-way ANOVA). P<0.05 is statistically significant. The results are shown in FIG. 5A, FIG. 5B, FIG. 6 and FIG. 7.

α-SMA = α-SMA immunofluorescence of lung tissue in bleomycin-induced pulmonary fibrosis mice; format: in vivo, C57BL6 mice; conditions: BLM+Met vs BLM group; inhalation powder aerosol of Embodiment 2, 5 mg per mouse every day for 3 weeks; FIG. 7
Protocol: Among them, BLM: bleomycin-induced pulmonary fibrosis mouse model group; BLM+Met: the effect of atomization inhalation of metformin on macroscopic damage of lung in mice with pulmonary fibrosis.
Dosage of inhaled metformin: the reference value of local administration concentration of metformin in upper respiratory tract is 200 mg/kg. […]
α-SMA immunofluorescence: lung tissue slides are dried at 65° C., dewaxed with xylene and dehydrated with gradient alcohol. […] The slides are sealed and the fluorescence intensity is observed under a fluorescence microscope.
Statistical analysis: the experimental data of each group are statistically analyzed by GraphpadPrism9.0 software. All the experimental data are tested for normality, and the measurement data are expressed as mean±standard deviation. […]

[2] = mouse, in vivo
Excerpt: (§1) According to the experimental results and the conversion rules of equivalent dose between different species (as shown in table 3), the no observable adverse effect level (NOAEL) of mice is converted into the human equivalent dose HED.
(§2) Among them, NOAEL: no observable adverse effect level dose obtained through animal preclinical toxicology research; HED: human equivalent dose.

[3] = NOAEL of mice and conversion into human equivalent dose (HED)
Excerpt: as §1, §2

IPF patients = conditions: after 52 weeks of treatment; cited from earlier work

With `CN(C)C(=N)N=C(N)N` [Metformin, metformin] the “alveolar structure (Masson and HE staining)” value ([1]; BLM+Met group, FIG. 6) was “complete”, the “inflammatory cells in alveolar cavity and alveolar septum” value ([1]; BLM+Met group, FIG. 6) was “no obvious inflammatory cells” and the “body weight of mice with pulmonary fibrosis” value ([1]; BLM+Met vs BLM group, FIG. 5A) was “decreased”. The “macroscopic damage of lung” value ([1]; BLM+Met vs BLM group, FIG. 5B) was “pink, with smooth surface and elastic touch”, the “collagen fibers (Masson and HE staining)” value ([1]; BLM+Met vs BLM group, FIG. 6) was “significantly reduced” and the “degree of fibrosis (Masson and HE staining)” value ([1]; BLM+Met vs BLM group, FIG. 6) was “significantly improved”. For the same molecule, the “expression of α-SMA (immunofluorescence)” value (α-SMA) was “decreased significantly”, the “maximum recommended initial inhalation dose for the first human study” value [2] was 97.8 mg and the NOAEL at 3 weeks ([3]; C57BL6, mouse, in vivo, inhaled or intranasal, 200 mg/kg) was 200 mg/kg. The “HED (human equivalent dose)” value ([3]; NOAEL of mice/12.3) was 16.3 mg/kg.
For `Cc1ccc(=O)n(-c2ccccc2)c1` [pirfenidone], the “disease progression of IPF patients” value (IPF patients) is given as “effectively slow down the disease progression”.
